Assay results: patent publication US20080234243A1, “METHOD OF TREATING AMYLOIDOSIS MEDIATED DISEASES” (priority 2007, published 2008)

System: soluble Aβ (1-40) peptide
Assay: In vivo effect on soluble Aβ (1-40) in whole brain homogenates of CB.17 SCID mice (ELISA)
Conditions: CB17 SCID mice, oral, 300 mg/kg/day for 20 days, brain extracts; P=0.012 vs. control
Description: FIG. 1 provides a graph showing a decrease in soluble AD levels in CB17 SCID mice treated with 2ME2. Mice (5 animals per group) were treated orally for 5 or 20 days with 300 mg/kg/day 2ME2, and soluble Aβ levels were measure in whole brain homogenates. (*P=0.012 vs. control)
CB. 17 SCID mice were treated orally for 5 or 20 days with 300 mg/kg/day 2ME2. At the end of treatment mice were humanely euthanized, and mouse brain was recovered surgically. This tissue was immediately frozen on dry ice until processing for ELISA analysis of soluble Aβ peptide. Serum is also routinely collected for later analysis as well.
Preparation of the Brain Extract Solution
1. Homogenize brains into 15 vol of ice cold TBS, pH 7.4 containing leupeptide (10 ug/ml) and aprotinin (20 ug/ml).
2. Transfer to microcentrifuge tubes and spin 20,000 g for 20 min at 4° C.
3. Remove supernatant (TBS Extract) to ice.
4. Wash once with cold TBS and resuspend in 15 vol of TBS/1% Triton X-100 and protease inhibitors. Incubate 30 min at 4° C. with agitation.
5. Transfer to microcentrifuge tubes and spin 20,000 g for 20 min at 4° C.
6. Remove supernatant (Triton Extract) to ice. […]
Harvested brains were homogenized with a tissue homogenizer, and subjected to serial extraction with TBS followed by TBS/Triton X-100. […] Brains were harvested, and soluble Aβ was assessed. […]

COc1cc2c(cc1O)CC[C@@H]1[C@@H]2CC[C@]2(C)[C@@H](O)CC[C@@H]12 [2ME2, 2-methoxyestradiol]
decrease in the levels of soluble Aβ (inhibition): 46%
